Measurements from patent US7790742B2, “Substituted 4-phenyltetrahydroisoquinolines, pharmaceutical compositions thereof, methods for their preparation and therapeutic use” (Sanofi-Aventis Deutschland GmbH, priority 2004, dated 2010).

Tests used:
[1] = target: NHE3 of the rat (Rattus norvegicus, UniProt P26433); settings: read-out: half-maximum inhibitory concentration (IC50); cited from earlier work
[2] = target: T1, NHE3 (Homo sapiens, UniProt P48764); settings: indirect mechanism; cited from earlier work
T1 construct: host or cells: cells, not specified
T1 sequence (P48764 26-834): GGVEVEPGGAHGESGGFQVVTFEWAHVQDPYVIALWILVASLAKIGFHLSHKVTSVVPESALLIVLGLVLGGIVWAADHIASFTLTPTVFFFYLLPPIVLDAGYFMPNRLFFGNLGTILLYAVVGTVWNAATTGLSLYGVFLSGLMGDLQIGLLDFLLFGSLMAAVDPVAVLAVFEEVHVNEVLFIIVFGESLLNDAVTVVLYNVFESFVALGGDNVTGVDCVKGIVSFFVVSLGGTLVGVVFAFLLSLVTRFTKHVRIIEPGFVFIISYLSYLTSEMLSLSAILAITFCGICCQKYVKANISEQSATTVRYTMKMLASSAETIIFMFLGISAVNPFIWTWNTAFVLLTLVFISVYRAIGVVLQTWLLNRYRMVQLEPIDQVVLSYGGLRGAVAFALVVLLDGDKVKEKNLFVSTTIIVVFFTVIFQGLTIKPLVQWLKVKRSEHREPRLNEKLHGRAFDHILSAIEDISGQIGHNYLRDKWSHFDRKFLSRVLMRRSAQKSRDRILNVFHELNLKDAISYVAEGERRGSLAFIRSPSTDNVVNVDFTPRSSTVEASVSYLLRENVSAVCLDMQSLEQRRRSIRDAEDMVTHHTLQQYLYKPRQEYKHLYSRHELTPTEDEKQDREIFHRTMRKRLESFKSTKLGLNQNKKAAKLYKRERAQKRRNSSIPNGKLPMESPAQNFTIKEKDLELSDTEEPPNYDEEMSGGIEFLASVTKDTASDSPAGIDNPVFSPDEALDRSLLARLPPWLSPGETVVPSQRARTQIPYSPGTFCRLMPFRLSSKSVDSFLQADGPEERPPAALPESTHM

[3] = target: T2, NHE5 (Homo sapiens, UniProt Q14940); assay: Tiamenidine inhibitory action on NHE subtypes: NHE5; type: cell-based; settings: therapeutically utilizable concentration range
T2 sequence (Q14940 1-896): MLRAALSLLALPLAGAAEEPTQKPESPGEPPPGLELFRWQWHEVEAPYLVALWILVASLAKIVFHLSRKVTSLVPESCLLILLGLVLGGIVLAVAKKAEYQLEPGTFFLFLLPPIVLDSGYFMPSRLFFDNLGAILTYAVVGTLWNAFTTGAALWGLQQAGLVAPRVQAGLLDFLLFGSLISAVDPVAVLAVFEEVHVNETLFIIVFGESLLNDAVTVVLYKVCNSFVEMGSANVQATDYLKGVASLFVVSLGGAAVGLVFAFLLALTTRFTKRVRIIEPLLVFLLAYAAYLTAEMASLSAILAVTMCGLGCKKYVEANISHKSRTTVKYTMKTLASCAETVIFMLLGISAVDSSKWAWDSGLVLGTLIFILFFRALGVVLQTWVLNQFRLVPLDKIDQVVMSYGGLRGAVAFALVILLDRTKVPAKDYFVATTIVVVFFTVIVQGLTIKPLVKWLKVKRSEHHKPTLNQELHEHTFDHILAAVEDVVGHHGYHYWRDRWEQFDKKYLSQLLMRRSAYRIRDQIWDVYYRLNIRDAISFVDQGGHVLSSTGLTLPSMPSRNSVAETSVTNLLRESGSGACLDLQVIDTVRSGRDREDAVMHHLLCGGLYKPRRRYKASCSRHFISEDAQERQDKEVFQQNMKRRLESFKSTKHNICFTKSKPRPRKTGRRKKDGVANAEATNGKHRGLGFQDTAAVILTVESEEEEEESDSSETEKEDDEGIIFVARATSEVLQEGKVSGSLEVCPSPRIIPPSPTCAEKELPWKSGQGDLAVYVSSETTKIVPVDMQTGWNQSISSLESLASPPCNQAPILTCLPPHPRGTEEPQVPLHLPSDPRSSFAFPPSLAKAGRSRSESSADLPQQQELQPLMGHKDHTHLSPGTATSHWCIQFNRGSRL
Source text: (§1) Compounds which are similar to clonidine but have a thiophene instead of the phenyl ring are disclosed in DE1941761. The structures of formula I disclosed and claimed herein differ from existing compounds by the fusing of a thieno-substituent to the imidazole moiety of the formula I or II. This distinction allows the above-described clonidine-like undesired cardiovascular effects mediated by alpha-adrenoreceptor action to be eliminated. […] The application WO03053434 proposes NHE3 inhibitors of the imidazoline type, the patent application WO 03101984 of the thiophene type and the application DE10304374 of the imidazole type.

[4] = target: T3, NHE2 (Homo sapiens, UniProt Q9UBY0); assay: Tiamenidine inhibitory action on NHE subtypes: NHE2; type: cell-based; settings: therapeutically utilizable concentration range
T3 sequence (Q9UBY0 1-812): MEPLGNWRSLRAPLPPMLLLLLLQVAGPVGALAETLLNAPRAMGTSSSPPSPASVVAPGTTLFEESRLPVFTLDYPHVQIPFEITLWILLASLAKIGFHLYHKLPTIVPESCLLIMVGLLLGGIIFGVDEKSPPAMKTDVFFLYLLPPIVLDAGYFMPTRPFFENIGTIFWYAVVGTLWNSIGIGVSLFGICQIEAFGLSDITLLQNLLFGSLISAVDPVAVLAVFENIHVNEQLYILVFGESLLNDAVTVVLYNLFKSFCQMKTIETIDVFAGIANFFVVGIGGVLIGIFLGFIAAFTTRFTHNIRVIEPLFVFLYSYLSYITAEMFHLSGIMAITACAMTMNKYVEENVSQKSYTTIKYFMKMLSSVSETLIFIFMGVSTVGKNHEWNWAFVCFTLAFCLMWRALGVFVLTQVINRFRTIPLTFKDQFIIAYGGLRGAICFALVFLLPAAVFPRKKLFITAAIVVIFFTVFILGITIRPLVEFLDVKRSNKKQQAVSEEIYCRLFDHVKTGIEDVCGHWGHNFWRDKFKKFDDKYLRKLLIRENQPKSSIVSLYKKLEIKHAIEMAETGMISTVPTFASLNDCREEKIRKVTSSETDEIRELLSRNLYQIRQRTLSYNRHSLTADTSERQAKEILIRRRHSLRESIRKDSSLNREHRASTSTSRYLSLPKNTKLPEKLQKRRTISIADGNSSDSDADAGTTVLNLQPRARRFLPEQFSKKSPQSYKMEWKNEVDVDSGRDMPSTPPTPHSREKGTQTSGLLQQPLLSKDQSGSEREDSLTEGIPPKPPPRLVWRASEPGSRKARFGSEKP
Source text: as §1

[5] = target: NHE1 (Homo sapiens, UniProt P19634); assay: Tiamenidine inhibitory action on NHE subtypes: NHE1; type: cell-based; settings: therapeutically utilizable concentration range
Sequence of NHE1 (P19634 whole entry, species assumed): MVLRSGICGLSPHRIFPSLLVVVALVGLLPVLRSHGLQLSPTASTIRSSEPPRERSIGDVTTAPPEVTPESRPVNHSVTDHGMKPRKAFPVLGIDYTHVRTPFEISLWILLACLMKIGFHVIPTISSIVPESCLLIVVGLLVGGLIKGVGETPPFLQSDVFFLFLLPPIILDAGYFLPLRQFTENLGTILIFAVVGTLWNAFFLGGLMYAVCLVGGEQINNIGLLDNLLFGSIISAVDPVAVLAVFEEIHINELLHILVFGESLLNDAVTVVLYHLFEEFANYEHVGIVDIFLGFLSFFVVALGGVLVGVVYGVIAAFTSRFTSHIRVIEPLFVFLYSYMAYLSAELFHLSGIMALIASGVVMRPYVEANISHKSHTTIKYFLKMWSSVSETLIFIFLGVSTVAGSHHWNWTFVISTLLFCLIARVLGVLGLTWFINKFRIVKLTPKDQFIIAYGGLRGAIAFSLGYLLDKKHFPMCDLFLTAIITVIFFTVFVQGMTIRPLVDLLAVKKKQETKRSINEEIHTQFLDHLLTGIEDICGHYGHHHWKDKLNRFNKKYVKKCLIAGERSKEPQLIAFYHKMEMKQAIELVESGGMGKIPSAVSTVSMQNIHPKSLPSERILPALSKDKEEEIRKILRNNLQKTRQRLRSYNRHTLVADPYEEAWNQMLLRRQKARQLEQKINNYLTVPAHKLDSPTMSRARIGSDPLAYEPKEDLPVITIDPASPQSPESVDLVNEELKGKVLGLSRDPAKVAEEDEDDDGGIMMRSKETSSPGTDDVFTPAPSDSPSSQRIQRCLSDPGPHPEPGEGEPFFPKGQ
Source text: as §1

[6] = target: T1, NHE3; assay: Tiamenidine inhibitory action on NHE subtypes: NHE3; type: cell-based; settings: therapeutically utilizable concentration range
Source text: as §1

Sequence of NHE3 of the rat (P26433 29-831): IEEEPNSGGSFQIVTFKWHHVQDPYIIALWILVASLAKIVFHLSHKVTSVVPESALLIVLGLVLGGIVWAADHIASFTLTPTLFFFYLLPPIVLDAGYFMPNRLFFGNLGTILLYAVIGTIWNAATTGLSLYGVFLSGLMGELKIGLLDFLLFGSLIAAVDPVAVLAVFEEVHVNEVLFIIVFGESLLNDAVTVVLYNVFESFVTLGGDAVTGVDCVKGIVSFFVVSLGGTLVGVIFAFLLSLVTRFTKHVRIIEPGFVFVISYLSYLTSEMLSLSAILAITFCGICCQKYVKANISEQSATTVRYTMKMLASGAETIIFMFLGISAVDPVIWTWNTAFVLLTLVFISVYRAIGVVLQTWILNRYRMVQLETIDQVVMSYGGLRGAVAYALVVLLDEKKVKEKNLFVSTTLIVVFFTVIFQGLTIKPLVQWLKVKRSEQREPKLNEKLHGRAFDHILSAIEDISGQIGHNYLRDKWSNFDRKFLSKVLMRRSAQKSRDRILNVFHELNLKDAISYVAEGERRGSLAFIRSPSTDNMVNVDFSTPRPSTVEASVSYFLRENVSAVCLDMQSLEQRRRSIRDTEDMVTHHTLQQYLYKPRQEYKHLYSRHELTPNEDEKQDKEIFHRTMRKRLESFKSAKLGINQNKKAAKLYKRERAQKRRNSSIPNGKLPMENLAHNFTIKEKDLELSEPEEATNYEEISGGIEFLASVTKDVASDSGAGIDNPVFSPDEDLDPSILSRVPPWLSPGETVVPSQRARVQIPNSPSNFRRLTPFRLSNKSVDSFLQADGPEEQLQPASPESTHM

Clc1cccc(Cl)c1N=C1NCCN1 [Clonidine]
IC50 [1]: 620 µM

CC(C)[C@@H](CC[C@@H](C)[C@H]1CC[C@H]2[C@@H]3[C@H](O)C[C@H]4C[C@@H](NCCCNCCCCN)CC[C@]4(C)[C@H]3CC[C@]12C)OS(=O)(=O)O [squalamine]
time to maximum strength of action [2]: after one hour

Cc1csc(Cl)c1NC1=NCCN1 [tiamenidine]
inhibitory action on NHE5 [3]: no relevant inhibitory actions
inhibitory action on NHE2 [4]: no relevant inhibitory actions
inhibitory action on NHE1 [5]: no relevant inhibitory actions
inhibitory action on NHE3 [6]: no relevant inhibitory actions
